Measured values taken from article PMC5218480 (PLoS ONE, 2017).

System: MV-4-11 cells
Assay: Gene expression microarray analysis (Affymetrix PrimeView) and GSEA
Format: cell-based, human
Parameters: RFU PODN (11730768_x_at) / Fold change /veh PODN (11730768_x_at) / RFU LINC00158 (11744669_a_at) / Fold change /veh LINC00158 (11744669_a_at) / RFU DUSP10 (11751237_a_at) / Fold change /veh DUSP10 (11751237_a_at) / RFU ID3 (11757404_x_at) / Fold change /veh ID3 (11757404_x_at) / RFU PLEKHG5 (11737974_s_at) / Fold change /veh PLEKHG5 (11737974_s_at) / RFU LRRC4B (11730491_at) / Fold change /veh LRRC4B (11730491_at) / RFU GIMAP4 (11747438_a_at) / Fold change /veh GIMAP4 (11747438_a_at) / RFU KRT8 (11758183_x_at) / Fold change /veh KRT8 (11758183_x_at) / RFU CNN1 (11734310_a_at) / Fold change /veh CNN1 (11734310_a_at) / RFU VPS37D (11726825_at) / Fold change /veh VPS37D (11726825_at) / RFU C10orf10 (11716522_x_at) / Fold change /veh C10orf10 (11716522_x_at) / RFU KIR2DL2 /// KIR2DL4 /// KIR2DL5A /// KIR2DL5B /// KIR2DS1 /// KIR2DS2 /// KIR2DS3 /// KIR2DS4 /// KIR3DL3 /// KIR3DL3 /// KIR3DS1 (11738374_at) / Fold change /veh KIR2DL2 /// KIR2DL4 /// KIR2DL5A /// KIR2DL5B /// KIR2DS1 /// KIR2DS2 /// KIR2DS3 /// KIR2DS4 /// KIR3DL3 /// KIR3DL3 /// KIR3DS1 (11738374_at) / RFU C1QL1 (11718748_at) / Fold change /veh C1QL1 (11718748_at) / RFU TMPRSS4 (11747572_a_at) / Fold change /veh TMPRSS4 (11747572_a_at) / RFU HAMP (11756126_x_at) / Fold change /veh HAMP (11756126_x_at) / RFU RNFT2 (11725882_a_at) / Fold change /veh RNFT2 (11725882_a_at) / RFU NR4A2 (11747474_a_at) / Fold change /veh NR4A2 (11747474_a_at) / RFU ABCC12 (11746883_a_at) / Fold change /veh ABCC12 (11746883_a_at) / RFU TMEM136 (11760407_x_at) / Fold change /veh TMEM136 (11760407_x_at) / RFU CLDN22 /// WWC2 (11732394_at) / Fold change /veh CLDN22 /// WWC2 (11732394_at) / RFU HLA-DPB1 (11760878_x_at) / Fold change /veh HLA-DPB1 (11760878_x_at) / RFU SPINT1 (11716480_a_at) / Fold change /veh SPINT1 (11716480_a_at) / RFU GAP43 (11754022_s_at) / Fold change /veh GAP43 (11754022_s_at) / RFU A4GNT (11735810_at) / Fold change /veh A4GNT (11735810_at) / RFU PRB3 (11715151_x_at) / Fold change /veh PRB3 (11715151_x_at) / RFU TUBB4B (11761932_at) / Fold change /veh TUBB4B (11761932_at) / RFU CAPN14 (11732068_a_at) / Fold change /veh CAPN14 (11732068_a_at) / RFU TMCC2 (11721928_a_at) / Fold change /veh TMCC2 (11721928_a_at) / RFU IRGQ (11745062_a_at) / Fold change /veh IRGQ (11745062_a_at) / RFU FAM174B (11720279_a_at) / Fold change /veh FAM174B (11720279_a_at) / RFU TMPRSS4 (11748680_a_at) / Fold change /veh TMPRSS4 (11748680_a_at) / RFU FAM212B (11763350_a_at) / Fold change /veh FAM212B (11763350_a_at) / RFU PLEKHG5 (11743358_a_at) / Fold change /veh PLEKHG5 (11743358_a_at) / RFU ZSCAN30 (11745921_a_at) / Fold change /veh ZSCAN30 (11745921_a_at) / RFU CMKLR1 (11741424_a_at) / Fold change /veh CMKLR1 (11741424_a_at) / RFU LOC101060620 /// MAPK8IP1 (11723275_at) / Fold change /veh LOC101060620 /// MAPK8IP1 (11723275_at) / RFU SPTSSB (11747773_x_at) / Fold change /veh SPTSSB (11747773_x_at) / RFU PRSS12 (11739890_at) / Fold change /veh PRSS12 (11739890_at) / RFU BIN1 (11741810_x_at) / Fold change /veh BIN1 (11741810_x_at) / RFU WNT11 (11732464_a_at) / Fold change /veh WNT11 (11732464_a_at) / RFU C10orf10 (11716521_a_at) / Fold change /veh C10orf10 (11716521_a_at) / RFU C5orf56 (11738089_at) / Fold change /veh C5orf56 (11738089_at) / RFU CYB561 (11721691_x_at) / Fold change /veh CYB561 (11721691_x_at) / RFU ANKRD19P (11752326_a_at) / Fold change /veh ANKRD19P (11752326_a_at) / RFU OR2T12 /// OR2T33 /// OR2T8 (11738714_s_at) / Fold change /veh OR2T12 /// OR2T33 /// OR2T8 (11738714_s_at) / RFU VCAN (11748164_a_at) / Fold change /veh VCAN (11748164_a_at) / RFU JSRP1 (11732532_at) / Fold change /veh JSRP1 (11732532_at) / RFU KRTAP10-11 (11738290_x_at) / Fold change /veh KRTAP10-11 (11738290_x_at) / RFU MYO3A (11730013_a_at) / Fold change /veh MYO3A (11730013_a_at) / RFU EBF3 (11725865_a_at) / Fold change /veh EBF3 (11725865_a_at) / RFU CAMK2N1 (11719241_x_at) / Fold change /veh CAMK2N1 (11719241_x_at) / RFU C5orf56 (11738088_a_at) / Fold change /veh C5orf56 (11738088_a_at) / RFU OLFML3 (11715873_a_at) / Fold change /veh OLFML3 (11715873_a_at) / RFU LOC100653217 /// NTM (11731650_a_at) / Fold change /veh LOC100653217 /// NTM (11731650_a_at) / RFU MAPK11 (11762145_a_at) / Fold change /veh MAPK11 (11762145_a_at) / RFU FIZ1 (11724087_x_at) / Fold change /veh FIZ1 (11724087_x_at) / RFU OASL (11726364_x_at) / Fold change /veh OASL (11726364_x_at) / RFU SOX15 (11748057_x_at) / Fold change /veh SOX15 (11748057_x_at) / RFU CD79A (11719716_a_at) / Fold change /veh CD79A (11719716_a_at) / RFU HIST1H1D (11736915_at) / Fold change /veh HIST1H1D (11736915_at) / RFU CASKIN2 (11723855_a_at) / Fold change /veh CASKIN2 (11723855_a_at) / RFU LOC730098 (11760151_x_at) / Fold change /veh LOC730098 (11760151_x_at) / RFU OR4N2 (11742367_at) / Fold change /veh OR4N2 (11742367_at) / RFU PRRT2 (11749266_a_at) / Fold change /veh PRRT2 (11749266_a_at) / RFU SNX32 (11753110_a_at) / Fold change /veh SNX32 (11753110_a_at) / RFU CDHR5 (11726645_a_at) / Fold change /veh CDHR5 (11726645_a_at) / RFU RCAN1 (11760418_a_at) / Fold change /veh RCAN1 (11760418_a_at) / RFU FAM167A (11723789_a_at) / Fold change /veh FAM167A (11723789_a_at) / RFU FAM26E (11764081_at) / Fold change /veh FAM26E (11764081_at) / RFU ISYNA1 (11749810_s_at) / Fold change /veh ISYNA1 (11749810_s_at) / RFU ACY1 (11761880_at) / Fold change /veh ACY1 (11761880_at) / RFU 11764098_at / Fold change /veh 11764098_at / RFU SAMD14 (11745864_x_at) / Fold change /veh SAMD14 (11745864_x_at) / RFU NPB (11741838_a_at) / Fold change /veh NPB (11741838_a_at) / RFU TMPRSS6 (11731388_a_at) / Fold change /veh TMPRSS6 (11731388_a_at) / RFU KRTAP10-2 (11738614_at) / Fold change /veh KRTAP10-2 (11738614_at) / RFU ARHGAP8 /// PRR5-ARHGAP8 (11727945_x_at) / Fold change /veh ARHGAP8 /// PRR5-ARHGAP8 (11727945_x_at) / RFU KRTAP5-7 /// NADSYN1 (11734609_at) / Fold change /veh KRTAP5-7 /// NADSYN1 (11734609_at) / RFU RASL12 (11751679_a_at) / Fold change /veh RASL12 (11751679_a_at) / RFU CDKN2B (11736163_a_at) / Fold change /veh CDKN2B (11736163_a_at) / RFU PRF1 (11729649_at) / Fold change /veh PRF1 (11729649_at) / RFU, ZNF638 /// ZNF638-IT1 / Fold change vs veh, ZNF638 /// ZNF638-IT1 / RFU, PANK3 / Fold change vs veh, PANK3 / RFU, SH3YL1 / Fold change vs veh, SH3YL1 / RFU, ZEB2 / Fold change vs veh, ZEB2 / RFU, NRIP1 / Fold change vs veh, NRIP1 / RFU, PTTG1IP / Fold change vs veh, PTTG1IP / RFU, CAPN2 / Fold change vs veh, CAPN2 / RFU, MED14 / Fold change vs veh, MED14 / RFU, SNORA58 / Fold change vs veh, SNORA58 / RFU, C1orf63 / Fold change vs veh, C1orf63 / RFU, LRRFIP1 / Fold change vs veh, LRRFIP1 / RFU, NDUFAF7 / Fold change vs veh, NDUFAF7 / RFU, SLC12A2 / Fold change vs veh, SLC12A2 / RFU, IBTK / Fold change vs veh, IBTK / RFU, ESF1 / Fold change vs veh, ESF1 / Fold change vs veh, TMEM50B / RFU, TAOK1 / Fold change vs veh, TAOK1 / RFU, ACBD3 / Fold change vs veh, ACBD3 / RFU, TMA16 / Fold change vs veh, TMA16 / RFU, RWDD3 / Fold change vs veh, RWDD3 / RFU, BCAT1 / Fold change vs veh, BCAT1 / RFU, EDEM3 / Fold change vs veh, EDEM3 / RFU, TMEM33 / Fold change vs veh, TMEM33 / RFU, WDR75 / Fold change vs veh, WDR75 / RFU, AHCTF1 / Fold change vs veh, AHCTF1 / RFU, TFRC / Fold change vs veh, TFRC / RFU, ZDHHC17 / Fold change vs veh, ZDHHC17 / RFU, NOM1 / Fold change vs veh, NOM1 / RFU, ARL8B / Fold change vs veh, ARL8B / RFU, ZBTB11 / Fold change vs veh, ZBTB11 / RFU, TAMM41 / Fold change vs veh, TAMM41 / RFU, KIAA1704 /// LOC100996395 / Fold change vs veh, KIAA1704 /// LOC100996395 / RFU, ING1 / Fold change vs veh, ING1 / RFU, TRMT61B / Fold change vs veh, TRMT61B / RFU, FUBP3 / Fold change vs veh, FUBP3 / RFU, TP53 / Fold change vs veh, TP53 / RFU, TNKS2 / Fold change vs veh, TNKS2 / RFU, ZFP14 / Fold change vs veh, ZFP14 / RFU, ACTR2 / Fold change vs veh, ACTR2 / RFU, PPP3R1 / Fold change vs veh, PPP3R1 / RFU, PIK3R1 / Fold change vs veh, PIK3R1 / RFU, HNRNPA1 / Fold change vs veh, HNRNPA1 / RFU, RNF170 / Fold change vs veh, RNF170 / RFU, ZNF28 / Fold change vs veh, ZNF28 / RFU, RNGTT / Fold change vs veh, RNGTT / RFU, OGT / Fold change vs veh, OGT / RFU, BRD1 / Fold change vs veh, BRD1 / RFU, MARS / Fold change vs veh, MARS / RFU, ZNF655 / Fold change vs veh, ZNF655 / RFU, FAHD1 / Fold change vs veh, FAHD1 / RFU, BDP1 / Fold change vs veh, BDP1 / RFU, LRRCC1 / Fold change vs veh, LRRCC1 / RFU, ARID1A / Fold change vs veh, ARID1A / RFU, ZNF146 / Fold change vs veh, ZNF146 / RFU, ZNF330 / Fold change vs veh, ZNF330 / RFU, GPN3 / Fold change vs veh, GPN3 / RFU, C9orf123 / Fold change vs veh, C9orf123 / RFU, N4BP2L2 / Fold change vs veh, N4BP2L2 / RFU, ARFIP1 / Fold change vs veh, ARFIP1 / RFU, FAM179B / Fold change vs veh, FAM179B / RFU, BCL10 / Fold change vs veh, BCL10 / RFU, UHRF1BP1L / Fold change vs veh, UHRF1BP1L / RFU, BET1 / Fold change vs veh, BET1 / RFU, CNOT2 / Fold change vs veh, CNOT2 / RFU, ZNF268 / Fold change vs veh, ZNF268 / Fold change vs veh, ZNF507 / RFU, DGCR2 / Fold change vs veh, DGCR2 / RFU, WDSUB1 / Fold change vs veh, WDSUB1 / Fold change vs veh, HSP90B1 /// MIR3652 / RFU, ADSS / Fold change vs veh, ADSS / RFU, GK / Fold change vs veh, GK / RFU, ZNF148 / Fold change vs veh, ZNF148 / RFU, TAF9 / Fold change vs veh, TAF9 / RFU, SLC1A5 / Fold change vs veh, SLC1A5 / RFU, SLMO2 / Fold change vs veh, SLMO2 / RFU, ABCC4 / Fold change vs veh, ABCC4 / RFU, LOC101060439 /// RAP1B / Fold change vs veh, LOC101060439 /// RAP1B / RFU, RFX7 / Fold change vs veh, RFX7 / RFU, GTPBP10 / Fold change vs veh, GTPBP10 / RFU, CNEP1R1 / Fold change vs veh, CNEP1R1 / RFU, BIVM-ERCC5 /// ERCC5 / Fold change vs veh, BIVM-ERCC5 /// ERCC5 / RFU, ILF3 / Fold change vs veh, ILF3 / RFU 11762660_at / Fold change /veh 11762660_at / RFU VCAN (11757783_s_at) / Fold change /veh VCAN (11757783_s_at) / RFU DDX43 (11728927_at) / Fold change /veh DDX43 (11728927_at) / RFU KRT8 (11758188_x_at) / Fold change /veh KRT8 (11758188_x_at) / RFU NKD1 (11759106_at) / Fold change /veh NKD1 (11759106_at) / RFU SRD5A1 (11742802_a_at) / Fold change /veh SRD5A1 (11742802_a_at) / RFU TPSAB1 /// TPSB2 (11721975_s_at) / Fold change /veh TPSAB1 /// TPSB2 (11721975_s_at) / RFU GSTM3 (11746129_a_at) / Fold change /veh GSTM3 (11746129_a_at) / RFU IL23R (11737362_x_at) / Fold change /veh IL23R (11737362_x_at) / RFU TMEM51 (11727254_a_at) / Fold change /veh TMEM51 (11727254_a_at) / RFU PIWIL2 (11732686_x_at) / Fold change /veh PIWIL2 (11732686_x_at) / RFU ORM1 (11744905_x_at) / Fold change /veh ORM1 (11744905_x_at) / RFU CCDC152 (11743942_at) / Fold change /veh CCDC152 (11743942_at) / RFU ECM1 (11717891_a_at) / Fold change /veh ECM1 (11717891_a_at) / RFU IL23R (11748794_a_at) / Fold change /veh IL23R (11748794_a_at) / RFU TNFAIP8L3 (11732012_x_at) / Fold change /veh TNFAIP8L3 (11732012_x_at) / RFU MBOAT4 (11741988_at) / Fold change /veh MBOAT4 (11741988_at) / RFU 11764193_at / Fold change /veh 11764193_at / RFU TMEM53 (11763286_at) / Fold change /veh TMEM53 (11763286_at) / RFU MAGEB2 (11727129_at) / Fold change /veh MAGEB2 (11727129_at) / RFU TMEM200A (11744735_a_at) / Fold change /veh TMEM200A (11744735_a_at) / RFU CCDC152 (11751479_a_at) / Fold change /veh CCDC152 (11751479_a_at) / RFU FAM211A (11726209_a_at) / Fold change /veh FAM211A (11726209_a_at) / RFU RGS16 (11746705_a_at) / Fold change /veh RGS16 (11746705_a_at) / RFU VCAN (11755009_s_at) / Fold change /veh VCAN (11755009_s_at) / RFU RHOB (11743442_s_at) / Fold change /veh RHOB (11743442_s_at) / RFU RGS16 (11720943_a_at) / Fold change /veh RGS16 (11720943_a_at) / RFU RGS16 (11720944_at) / Fold change /veh RGS16 (11720944_at) / RFU, VPS4B / Fold change vs veh, VPS4B / RFU, CREB1 / Fold change vs veh, CREB1 / RFU, DNAJC13 / Fold change vs veh, DNAJC13 / RFU, GNAQ / Fold change vs veh, GNAQ / RFU, CDK5R1 / Fold change vs veh, CDK5R1 / RFU, ZRANB3 / Fold change vs veh, ZRANB3 / RFU, CUL4A / Fold change vs veh, CUL4A / RFU, CCNY / Fold change vs veh, CCNY / RFU, UFL1 / Fold change vs veh, UFL1 / RFU, COG3 / Fold change vs veh, COG3 / RFU, DIAPH2 / Fold change vs veh, DIAPH2 / RFU, SKA2 / Fold change vs veh, SKA2 / RFU, AFF3 / Fold change vs veh, AFF3 / RFU, LMF1 / Fold change vs veh, LMF1 / RFU, IPO11 / Fold change vs veh, IPO11 / RFU, DFFB / Fold change vs veh, DFFB / RFU, FOXP1 / Fold change vs veh, FOXP1 / RFU, CARD8 / Fold change vs veh, CARD8 / RFU, STRN3 / Fold change vs veh, STRN3 / RFU, ADK / Fold change vs veh, ADK / RFU, RASSF2 / Fold change vs veh, RASSF2 / RFU, WIPF1 / Fold change vs veh, WIPF1 / RFU, LARP1B / Fold change vs veh, LARP1B / RFU, RASA1 / Fold change vs veh, RASA1 / RFU, RB1 / Fold change vs veh, RB1 / RFU, PPFIA1 / Fold change vs veh, PPFIA1 / RFU, MAT2A / Fold change vs veh, MAT2A / RFU, CCT5 / Fold change vs veh, CCT5 / RFU, WDR92 / Fold change vs veh, WDR92 / RFU, CUX1 / Fold change vs veh, CUX1 / RFU, TTC7A / Fold change vs veh, TTC7A / RFU, TMEM135 / Fold change vs veh, TMEM135 / RFU, DEPTOR / Fold change vs veh, DEPTOR / RFU, CPM / Fold change vs veh, CPM / RFU, DNAJB6 / Fold change vs veh, DNAJB6 / RFU, CACNA2D3 / Fold change vs veh, CACNA2D3 / RFU, DTX4 / Fold change vs veh, DTX4 / RFU, TFCP2 / Fold change vs veh, TFCP2 / RFU, GMCL1 /// GMCL1P1 / Fold change vs veh, GMCL1 /// GMCL1P1 / RFU, AEBP2 / Fold change vs veh, AEBP2 / RFU, SNHG1 /// SNORD22 /// SNORD25 /// SNORD26 /// SNORD27 /// SNORD28 /// SNORD29 /// SNORD31 / Fold change vs veh, SNHG1 /// SNORD22 /// SNORD25 /// SNORD26 /// SNORD27 /// SNORD28 /// SNORD29 /// SNORD31 / Fold change (Aza/veh), C12orf56 (ProbeSet 11735607_a_at) / Fold change (ACY-1035/veh), C12orf56 (ProbeSet 11735607_a_at) / Fold change (Aza/veh), FGFR1OP (ProbeSet 11751329_s_at) / Fold change (ACY-1035/veh), FGFR1OP (ProbeSet 11751329_s_at) / Fold change (Aza/veh), VPS36 (ProbeSet 11739960_a_at) / Fold change (ACY-1035/veh), VPS36 (ProbeSet 11739960_a_at) / RFU SYPL1 (11715823_x_at) / Fold change /veh SYPL1 (11715823_x_at) / RFU IGFBP7 (11715501_s_at) / Fold change /veh IGFBP7 (11715501_s_at) / RFU REEP3 (11722064_at) / Fold change /veh REEP3 (11722064_at) / RFU IGLL1 (11728026_x_at) / Fold change /veh IGLL1 (11728026_x_at): dose or concentration left out as unconfirmed
Conditions: MV-4-11 cells, 48 hours

Nc1ccc(-c2cccs2)cc1NC(=O)c1ccc2c(c1)cc(C1CC1)n2CCN1CCOCC1 [ACY-1035]
Fold change /veh CYB561 (11721691_x_at): 0.97
